Laboratory results reported in PMC6271006, “Monoamine Oxidase Inhibitory Constituents of Propolis: Kinetics and Mechanism of Inhibition of Recombinant Human MAO-A and MAO-B” (Molecules, 2014).
Like-named read-outs stand apart in the source and are kept apart here.

Legend:
recombinant human MAO-A [1] = target: T1, recombinant human MAO-A (Homo sapiens, UniProt P21397); test: Reversibility of binding by enzyme-inhibitor complex dissociation dialysis, MAO-A; assay type: biochemical; details: for MAO-A activity recovered after dialysis: overnight dialysis; for Nature of binding with MAO-A: dialysis dissociation
T1 construct: purchased BD Biosciences (Bedford, MA, USA)
T1 sequence (P21397 1-527): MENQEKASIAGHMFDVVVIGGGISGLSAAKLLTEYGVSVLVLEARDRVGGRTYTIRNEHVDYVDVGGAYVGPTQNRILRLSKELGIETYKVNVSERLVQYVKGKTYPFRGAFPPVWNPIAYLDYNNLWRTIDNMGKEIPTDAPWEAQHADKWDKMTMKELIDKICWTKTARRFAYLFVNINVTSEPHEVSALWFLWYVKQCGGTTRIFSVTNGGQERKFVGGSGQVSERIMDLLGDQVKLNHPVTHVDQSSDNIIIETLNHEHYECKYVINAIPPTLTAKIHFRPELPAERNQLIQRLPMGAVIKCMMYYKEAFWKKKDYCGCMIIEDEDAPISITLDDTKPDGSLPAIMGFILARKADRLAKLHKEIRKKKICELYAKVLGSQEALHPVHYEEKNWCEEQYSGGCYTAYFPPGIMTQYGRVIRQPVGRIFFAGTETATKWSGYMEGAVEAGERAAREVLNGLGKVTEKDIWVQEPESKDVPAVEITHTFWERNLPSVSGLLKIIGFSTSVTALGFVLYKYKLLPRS
Protocol: (§1) The characteristic binding of these inhibitors was also investigated by the enzyme-inhibitor complex dissociation by dialysis. High concentrations of the inhibitors were allowed to interact with the enzyme (MAO-A or B) for 20 min and the resulting enzyme-inhibitor complex mixtures were dialyzed overnight against buffer solutions. The catalytic activities of the enzymes were analyzed before and after the dialysis. The recombinant human MAO-A lost about 30% of the enzyme activity during overnight dialysis. […] After the dialysis about 70% and 80% activity of the enzyme was recovered from enzyme-galangin and enzyme-apigenin incubation mixtures. This observation indicated reversal of the enzyme activity due to formation of dissociable enzyme-inhibitor complex. […] The recombinant MAO-B lost about 30% of the enzyme activity during overnight dialysis.
(§2) Most of the inhibitors produce inhibition of the target enzyme through formation of an enzyme-inhibitor complex. Formation of the enzyme-inhibitor complex may be accelerated in presence of high concentration of the inhibitor. […] After 20 min incubation at 37 °C, the reaction was stopped by chilling the tubes on the ice bath. All the samples were dialyzed against potassium phosphate buffer (25 mM; pH 7.4) at 4 °C for 14 h (three buffer changes). Control enzyme (without inhibitor) was also run through the same procedure and activity of the enzyme was determined before and after the dialysis. Recovery of the catalytic activity enzyme after extensive dialysis of the enzyme-inhibitor mix provided the information about reversibility/irreversibility of binding of the inhibitor with the enzyme.

total MAO (A & B) = test system: total MAO (A & B); set-up: method as in not given; details: mouse brain crude mitochondrial preparation; earlier study, ref not given; read-out: IC50 for inhibition of total MAO (A & B); cited from earlier work
recombinant human MAO-B [2] = target: T2, recombinant human MAO-B (Homo sapiens, UniProt P27338); test: Time-dependent enzyme inhibition, MAO-B; assay type: biochemical; details: pre-incubation 0-15 min; galangin 14.0 μM, apigenin 4.0 μM
T2 construct: purchased BD Biosciences (Bedford, MA, USA)
T2 sequence (P27338 1-520): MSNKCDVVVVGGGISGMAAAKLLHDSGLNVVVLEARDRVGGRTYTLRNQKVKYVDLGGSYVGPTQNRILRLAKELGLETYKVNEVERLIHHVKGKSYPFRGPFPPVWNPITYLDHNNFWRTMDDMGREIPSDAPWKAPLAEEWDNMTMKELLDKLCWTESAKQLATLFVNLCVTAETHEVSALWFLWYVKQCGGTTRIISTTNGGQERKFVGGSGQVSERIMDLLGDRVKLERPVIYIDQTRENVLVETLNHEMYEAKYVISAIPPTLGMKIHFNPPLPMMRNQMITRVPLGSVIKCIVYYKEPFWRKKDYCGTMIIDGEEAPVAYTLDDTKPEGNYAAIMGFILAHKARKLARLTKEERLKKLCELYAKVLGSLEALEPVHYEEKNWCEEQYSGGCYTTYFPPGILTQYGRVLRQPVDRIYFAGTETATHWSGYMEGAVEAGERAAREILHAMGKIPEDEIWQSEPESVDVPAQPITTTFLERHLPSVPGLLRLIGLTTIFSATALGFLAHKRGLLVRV
Protocol: (§3) The controls without inhibitors were also run simultaneously. Activities of the enzymes were determined as described above and percentage of enzyme activity remaining was plotted against the preincubation time to determine time-dependent inhibition.
(§4) The controls without inhibitors were also run simultaneously. Activities of the enzymes were determined as described above and percentage of enzyme activity remaining was plotted against the preincubation time to determine time-dependent enzyme-inhibition.

recombinant human MAO-B [3] = target: T2, recombinant human MAO-B; test: Enzyme kinetics / inhibition mechanism, MAO-B (Ki, Lineweaver-Burk); assay type: biochemical
Description: (§5) Based on dose-response inhibition, two concentrations of the inhibitors were selected, one below and another above IC50 value for the inhibition. For each experiment, three sets of assays were done at varying concentrations of the substrate, one control without inhibitors and with two concentrations of the inhibitor.
(§6) Controls without inhibitor were also run simultaneously.

recombinant human MAO-A [4] = target: T1, recombinant human MAO-A; test: Enzyme kinetics / inhibition mechanism, MAO-A (Ki, Lineweaver-Burk); assay type: biochemical; details: for Ki: kynuramine 1.90-500 μM, SigmaPlot enzyme module, mean ± S.D. of triplicate experiments, read-out: Monoamine Oxidase-A Ki
Description: as §5, §6

MAO-A = test system: MAO-A; set-up: method as in not given; details: mouse brain crude mitochondrial preparation, iso-enzyme specific substrates; earlier study, ref not given; cited from earlier work
recombinant human MAO-A [5] = target: T1, recombinant human MAO-A; test: Time-dependent enzyme inhibition, MAO-A; assay type: biochemical; details: pre-incubation 0-15 min; galangin 0.25 μM, apigenin 1.2 μM
Protocol: as §3, §4

recombinant human MAO-B [6] = target: T2, recombinant human MAO-B; test: MAO-B inhibition, kynuramine deamination assay (IC50); assay type: biochemical; details: pure compounds; 50 μM kynuramine; mean ± S.D. of triplicate; read-out: Monoamine Oxidase-B (IC50)
Protocol: (§7) To investigate the effect of the selected constituents on MAO-A and MAO-B, the kynuramine deamination assay was adapted for 96-well plates as described earlier. […] For MAO-A, the substrate concentration of 80 μM kynuramine was chosen because the apparent KM value for substrate binding reported previously was approximately 40 μM [48]. […] Similarly, for MAO-B, substrate concentration of 50 μM kynuramine was chosen. The assay was performed with the addition of inhibitor. Inhibition was calculated as percent of product formation compared to the corresponding control (enzyme-substrate reaction) without the inhibitors. The reactions were carried out in 0.1 M potassium phosphate buffer at pH 7.4. Incubations mixtures contained 5 μg/mL of MAO-A (50 μL in buffer) and 10 μg/mL of MAO-B (50 μL in buffer). The inhibitor was dissolved in DMSO or in buffer (if not dissolved in DMSO). The total reaction volume was 200 μL yielding a final DMSO concentration of 1.0% in the reaction mixture. The reaction mixtures were pre-incubated for 10 min at 37 °C followed by the addition of MAO-A/MAO-B to initiate the reactions. Reactions were incubated for 20 min at 37 °C and were stopped immediately by the addition of 75 μL of 2N NaOH. The formation of 4-hydroxyquinoline was determined fluorometrically by SpectraMax M5 fluorescence plate reader (Molecular Devices, Sunnyvale, CA, USA) with an excitation and emission wavelength of 320 nm and 380 nm, respectively, using the Soft Max Pro program. Appropriate controls with the test compounds, fractions and extracts, where the enzyme or the substrate was added after stopping the reaction were setup simultaneously to check interference with the fluorescence measurements.
(§8) IC50 values for inhibition of MAO-A and B by the selected constituents were determined using fixed concentration of substrate and varying concentration of the inhibitor.

recombinant human MAO-B [7] = target: T2, recombinant human MAO-B; test: Reversibility of binding by enzyme-inhibitor complex dissociation dialysis, MAO-B; assay type: biochemical; details: for MAO-B activity recovery after dialysis: overnight dialysis
Protocol: as §1, §2

recombinant human MAO-A [8] = target: T1, recombinant human MAO-A; test: MAO-A inhibition, kynuramine deamination assay (IC50); assay type: biochemical; details: for IC50: pure compounds, 80 μM kynuramine, mean ± S.D. of triplicate, read-out: Monoamine Oxidase-A (IC50)
Protocol: as §7, §8

## O=c1cc(-c2ccc(O)cc2)oc2cc(O)cc(O)c12 [Apigenin, apigenin]
Recombinant human MAO-A [1]; 20.0 μM inhibitor, 20 min incubation, read-out: Inhibition of catalytic activity of MAO-A before dialysis
  inhibition at 20 µM: > 88%
Recombinant human MAO-A [1]; 20.0 μM inhibitor
  MAO-A activity recovered after dialysis: ~80%
Recombinant human MAO-A [1]
  Nature of binding with MAO-A: reversible
Total MAO (A & B)
  IC50: 1000 nM
Recombinant human MAO-B [2]
  Time-dependence of binding/inhibition of MAO-B: not dependent on pre-incubation time
Recombinant human MAO-B [3]
  Monoamine Oxidase-B Type of Inhibition: Competitive/Reversible
Recombinant human MAO-B [3]; kynuramine 1.90-500 μM, SigmaPlot enzyme module, mean ± S.D. of triplicate experiments, read-out: Monoamine Oxidase-B Ki
  Ki: 238 ± 24 nM
Recombinant human MAO-B [3]; listed as apigenin
  Monoamine Oxidase-B Type of Inhibition: competitive
Recombinant human MAO-A [4]
  Monoamine Oxidase-A Type of Inhibition: Competitive/Reversible
  Ki: 125 ± 14 nM
Recombinant human MAO-A [4]; listed as apigenin
  Monoamine Oxidase-A Type of Inhibition: competitive
MAO-A
  Potency of MAO-A inhibition relative to MAO-B: about 7.5 fold
Recombinant human MAO-A [5]
  Time-dependence of binding/inhibition of MAO-A: not dependent on pre-incubation time
Recombinant human MAO-B [6]
  IC50: 1120 ± 270 nM
Recombinant human MAO-B [7]; 25.0 μM inhibitor, 20 min incubation, read-out: Inhibition of catalytic activity of MAO-B before dialysis
  inhibition at 25 µM: ~90%
Recombinant human MAO-B [7]; 25.0 μM inhibitor
  MAO-B activity recovery after dialysis: almost fully recovered
Recombinant human MAO-A [8]
  IC50: 640 ± 110 nM

## O=c1c(O)c(-c2ccc(O)c(O)c2)oc2cc(O)ccc12 [Fisetin hydrate, fisetin]
Recombinant human MAO-B [6]
  IC50: > 100000 nM
Recombinant human MAO-A [8]; MAO-A over MAO-B
  Selectivity for MAO-A vs. MAO-B: > 47 fold
Recombinant human MAO-A [8]
  IC50: 2100 ± 90 nM

## O=c1c(O)c(-c2ccccc2)oc2cc(O)cc(O)c12 [Galangin, galangin]
Recombinant human MAO-A [1]; 10.0 μM inhibitor, 20 min incubation, read-out: Inhibition of catalytic activity of MAO-A before dialysis
  inhibition at 10 µM: > 97%
Recombinant human MAO-A [1]; 10.0 μM inhibitor
  MAO-A activity recovered after dialysis: about 70%
Recombinant human MAO-A [1]
  Nature of binding with MAO-A: reversible
Recombinant human MAO-B [2]
  Time-dependence of binding/inhibition of MAO-B: not dependent on pre-incubation time
Recombinant human MAO-B [3]
  Monoamine Oxidase-B Type of Inhibition: Competitive/Reversible
Recombinant human MAO-B [3]; listed as galangin
  Monoamine Oxidase-B Type of Inhibition: competitive
Recombinant human MAO-A [4]
  Monoamine Oxidase-A Type of Inhibition: Competitive/Reversible
  Ki: 29 ± 4 nM
Recombinant human MAO-A [4]; listed as galangin
  Monoamine Oxidase-A Type of Inhibition: competitive
Recombinant human MAO-A [5]
  Time-dependence of binding/inhibition of MAO-A: not dependent on pre-incubation time
Recombinant human MAO-B [7]; 50.0 μM inhibitor, 20 min incubation
  Inhibition of MAO-B enzyme activity before dialysis: ~58.3
Recombinant human MAO-B [7]; 50.0 μM inhibitor
  MAO-B activity recovery after dialysis: almost completely recovered
Recombinant human MAO-A [8]
  IC50: 130 ± 10 nM

## COc1ccc2c(c1)[nH]c1c(C)nccc12 [Harmine, reference compound]
Recombinant human MAO-A [4]
  Monoamine Oxidase-A Type of Inhibition: Competitive/Reversible
Recombinant human MAO-B [6]
  IC50: 27500 ± 2670 nM

## O=c1c(O)c(-c2ccc(O)cc2O)oc2cc(O)cc(O)c12 [Morin hydrate, morin]
Recombinant human MAO-B [6]
  IC50: 49700 ± 560 nM
Recombinant human MAO-A [8]; MAO-A over MAO-B
  Selectivity for MAO-A vs. MAO-B: 9 fold
Recombinant human MAO-A [8]
  IC50: 5880 ± 150 nM

## O=c1c(O)c(-c2ccc(O)c(O)c2)oc2cc(O)cc(O)c12 [Quercetin, quercetin]
Recombinant human MAO-B [6]
  IC50: 38700 ± 1200 nM
Recombinant human MAO-A [8]
  Selectivity for MAO-A vs. MAO-B: 15 fold
  IC50: 2440 ± 120 nM

## O=C1c2c(O)cc(O)cc2OC(c2ccc(O)c(O)c2)C1O (stereo not shown) [Toxifolin, taxifolin]
Recombinant human MAO-B [6]
  IC50: 53800 ± 3910 nM
Recombinant human MAO-A [8]
  IC50: 65100 ± 1960 nM
